The record followed here is patent publication US7125990B2, “Imidazolyl derivatives as corticotropin releasing factor inhibitors” (Bristol-Myers Squibb COmpany, priority 2001, dated 2006).

A value given as a limit tells only on which side of the number the result lay.

For the assay, the target named is T1, CRF1 receptors (Homo sapiens, UniProt P34998).
T1 construct: endogenous in cells; host or cells: IMR-32 cells, transformed with 2.5 µM 5'-bromo-2'-deoxyuridine for 10 days; membrane preparation
T1 sequence (P34998 24-415): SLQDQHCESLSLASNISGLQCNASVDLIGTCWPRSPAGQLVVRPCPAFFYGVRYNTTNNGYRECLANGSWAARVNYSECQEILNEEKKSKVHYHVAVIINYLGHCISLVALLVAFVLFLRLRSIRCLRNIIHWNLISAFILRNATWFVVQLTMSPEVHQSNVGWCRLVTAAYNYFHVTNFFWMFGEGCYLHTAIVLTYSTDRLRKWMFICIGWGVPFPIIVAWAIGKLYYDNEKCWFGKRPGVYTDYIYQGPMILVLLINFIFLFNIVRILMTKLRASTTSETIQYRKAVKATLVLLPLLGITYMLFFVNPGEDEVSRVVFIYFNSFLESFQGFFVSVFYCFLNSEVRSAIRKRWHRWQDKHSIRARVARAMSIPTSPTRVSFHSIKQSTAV
The assay is described as follows: CRF1 receptor radioligand binding assay ([125I]-oCRF competition, IMR-32 cell membranes). The conditions noted are these: IMR-32 cell membranes, [125I]-oCRF 100 pM; read-out: Ki (CRF-1R). In a few lines:
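Buffer: Tris pH 7.2 with MgCl2, BSA, Triton X-100, aprotinin, leupeptin; reaction stopped with ice-cold wash and filtered. Nonspecific binding set with 10 μM oCRF.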
By Ki is commonly meant a measure of affinity in units of concentration, obtained from inhibition or displacement. On to `Cc1cc(C)c(-n2c(Cl)cn3c(CN4CCCC4Cc4ccccc4)c(C(F)(F)F)nc23)c(C)c1` (centres unmarked) [Example 316, 5-(2-Benzyl-pyrrolidin-1-ylmethyl)-2-chloro-6-trifluoromethyl-1-(2,4,6-trimethyl-phenyl)-1H-imidazo[1,2-a]imidazole], for which the inhibitory constant (Ki) is < 1000 nM.
In the case of `Cc1cc(C)c(-n2c(Cl)cn3c(CN4CCC(c5ccccc5)C4)c(C(F)(F)F)nc23)c(C)c1` (centres unmarked) [Example 317, 2-Chloro-5-(3-phenyl-pyrrolidin-1-ylmethyl)-6-trifluoromethyl-1-(2,4,6-trimethyl-phenyl)-1H-imidazo[1,2-a]imidazole] it was < 1000 nM; in that of `Cc1cc(C)c(-n2c(Cl)cn3c(CN(CC4CC4)CC(F)(F)C(F)(F)F)c(C(F)(F)F)nc23)c(C)c1` [Example 318], < 10 nM.
For `CCN(Cc1c(C(F)(F)F)nc2n(-c3c(C)cc(C)cc3C)c(Cl)cn12)CC1CC1` [Example 319, [6-Chloro-2-trifluoromethyl-7-(2,4,6-trimethyl-phenyl)-7H-imidazo[1,2-a]imidazol-3-ylmethyl]-cyclopropylmethyl-ethyl-amine], the Ki was < 10 nM.
As to `Cc1cc(C)c(-n2c(Cl)cn3c(CN(CC4CCC4)CC(F)(F)F)c(C(F)(F)F)nc23)c(C)c1` [Example 320, [6-Chloro-2-trifluoromethyl-7-(2,4,6-trimethyl-phenyl)-7H-imidazo[1,2-a]imidazol-3-ylmethyl]-cyclobutylmethyl-(2,2,2-trifluoro-ethyl)-amine], the Ki was < 10 nM.
Regarding `CCCN(CCC(F)(F)F)Cc1c(C(F)(F)F)nc2n(-c3c(C)cc(C)cc3C)c(Cl)cn12` [Example 321, [6-Chloro-2-trifluoromethyl-7-(2,4,6-trimethyl-phenyl)-7H-imidazo[1,2-a]imidazol-3-ylmethyl]-propyl-(3,3,3-trifluoro-propyl)-amine], the Ki is < 10 nM.
Regarding `CCCN(Cc1c(C(F)(F)F)nc2n(-c3c(C)cc(C)cc3C)c(Cl)cn12)CC(F)(F)F` [Example 322, [6-Chloro-2-trifluoromethyl-7-(2,4,6-trimethyl-phenyl)-7H-imidazo[1,2-a]imidazol-3-ylmethyl]-propyl-(2,2,2-trifluoro-ethyl)-amine], the inhibition constant (Ki) is < 10 nM.
As to `CCCN(Cc1c(C(F)(F)F)nc2n(-c3c(C)cc(C)cc3C)c(Cl)cn12)CC(F)(F)C(F)(F)F` [Example 323, [6-Chloro-2-trifluoromethyl-7-(2,4,6-trimethyl-phenyl)-7H-imidazo[1,2-a]imidazol-3-ylmethyl]-(2,2,3,3,3-pentafluoro-propyl)-propyl-amine], the inhibition constant Ki was < 1000 nM.
As to `Cc1cc(C)c(-n2c(Cl)cn3c(CN(CCc4ccccc4)CC(F)(F)F)c(C(F)(F)F)nc23)c(C)c1` [Example 324, [6-Chloro-2-trifluoromethyl-7-(2,4,6-trimethyl-phenyl)-7H-imidazo[1,2-a]imidazol-3-ylmethyl]-phenethyl-(2,2,2-trifluoro-ethyl)-amine], the Ki was < 1000 nM.
For the molecule `Cc1cc(C)c(-n2c(Cl)cn3c(CN(CCC(F)(F)F)Cc4ccccc4)c(C(F)(F)F)nc23)c(C)c1` [Example 327, Benzyl-[6-chloro-2-trifluoromethyl-7-(2,4,6-trimethyl-phenyl)-7H-imidazo[1,2-a]imidazol-3-ylmethyl]-(3,3,3-trifluoro-propyl)-amine], the Ki is < 100 nM.
Regarding `Cc1cc(C)c(-n2c(Cl)cn3c(CN(CCC4CC4)CCC(F)(F)F)c(C(F)(F)F)nc23)c(C)c1` [Example 330, [6-Chloro-2-trifluoromethyl-7-(2,4,6-trimethyl-phenyl)-7H-imidazo[1,2-a]imidazol-3-ylmethyl]-(2-cyclopropyl-ethyl)-(3,3,3-trifluoro-propyl)-amine], the Ki is < 10 nM.
In the case of `Cc1cc(C)c(-n2c(Cl)cn3c(CN(CCC4CC4)CC(F)(F)F)c(C(F)(F)F)nc23)c(C)c1` [Example 331, [6-Chloro-2-trifluoromethyl-7-(2,4,6-trimethyl-phenyl)-7H-imidazo[1,2-a]imidazol-3-ylmethyl]-(2-cyclopropyl-ethyl)-(2,2,2-trifluoro-ethyl)-amine], the inhibitory constant (Ki) was < 10 nM.
Regarding `Cc1cc(C)c(-n2c(Cl)cn3c(CN(Cc4ccc(F)cc4)CC(F)(F)F)c(C(F)(F)F)nc23)c(C)c1` [Example 332], the inhibition constant Ki was < 1000 nM.
For `Cc1cc(C)c(-n2c(Cl)cn3c(CN(CCC(F)(F)F)Cc4ccc(F)cc4)c(C(F)(F)F)nc23)c(C)c1` [Example 333], the Ki was < 100 nM.
As for `Cc1cc(C)c(-n2c(Cl)cn3c(CN(CCC(F)(F)F)Cc4ccc(Cl)cc4)c(C(F)(F)F)nc23)c(C)c1` [Example 336, (4-Chloro-benzyl)-[6-chloro-2-trifluoromethyl-7-(2,4,6-trimethyl-phenyl)-7H-imidazo[1,2-a]imidazol-3-ylmethyl]-(3,3,3-trifluoro-propyl)-amine], the inhibition constant Ki was < 10 nM.
In the case of `C=CCN(CCC)Cc1c(C(F)(F)F)nc2n(-c3c(C)cc(C)cc3C)c(Cl)cn12` [Example 339, Allyl-[6-chloro-2-trifluoromethyl-7-(2,4,6-trimethyl-phenyl)-7H-imidazo[1,2-a]imidazol-3-ylmethyl]-propyl-amine] it was < 10 nM; in that of `CCCN(Cc1cccc(F)c1)Cc1c(C(F)(F)F)nc2n(-c3c(C)cc(C)cc3C)c(Cl)cn12` [Example 340, [6-Chloro-2-trifluoromethyl-7-(2,4,6-trimethyl-phenyl)-7H-imidazo[1,2-a]imidazol-3-ylmethyl]-(3-fluoro-benzyl)-propyl-amine], < 1000 nM; in that of `CCN(Cc1c(C(F)(F)F)nc2n(-c3c(C)cc(C)cc3C)c(Cl)cn12)CC1CCC1` [Example 341, [6-Chloro-2-trifluoromethyl-7-(2,4,6-trimethyl-phenyl)-7H-imidazo[1,2-a]imidazol-3-ylmethyl]-cyclobutylmethyl-ethyl-amine], < 10 nM.
With `CCCN(CCOC)Cc1c(C(F)(F)F)nc2n(-c3c(C)cc(C)cc3C)c(Cl)cn12` [Example 342, [6-Chloro-2-trifluoromethyl-7-(2,4,6-trimethyl-phenyl)-7H-imidazo[1,2-a]imidazol-3-ylmethyl]-(2-methoxy-ethyl)-propyl-amine], the inhibition constant (Ki) was < 100 nM.
In the case of `Cc1cc(C)c(-n2c(Cl)cn3c(CN(CCC(F)(F)F)Cc4cccc(F)c4)c(C(F)(F)F)nc23)c(C)c1` [Example 343, [6-Chloro-2-trifluoromethyl-7-(2,4,6-trimethyl-phenyl)-7H-imidazo[1,2-a]imidazol-3-ylmethyl]-(3-fluoro-benzyl)-(3,3,3-trifluoro-propyl)-amine] it was < 100 nM; in that of `CCCN(CCC)Cc1c(C(F)(F)F)nc2n(-c3c(C)cc(C)cc3C)c(Cl)cn12` [Example 344, [6-Chloro-2-trifluoromethyl-7-(2,4,6-trimethyl-phenyl)-7H-imidazo[1,2-a]imidazol-3-ylmethyl]-dipropyl-amine], < 100 nM; in that of `C=CCN(CC=C)Cc1c(C(F)(F)F)nc2n(-c3c(C)cc(C)cc3C)c(Cl)cn12` [Example 345, Diallyl-[6-chloro-2-trifluoromethyl-7-(2,4,6-trimethyl-phenyl)-7H-imidazo[1,2-a]imidazol-3-ylmethyl]-amine], < 10 nM.
`CCCCN(CC)Cc1c(C(F)(F)F)nc2n(-c3c(C)cc(C)cc3C)c(Cl)cn12` [Example 346, Butyl-[6-chloro-2-trifluoromethyl-7-(2,4,6-trimethyl-phenyl)-7H-imidazo[1,2-a]imidazol-3-ylmethyl]-ethyl-amine]: the inhibition constant Ki was < 100 nM.
